Test results published in ChEMBL document CHEMBL1909046, “DrugMatrix in vitro pharmacology data”.

Columns and labels:
Glycine receptor = Glycine receptor (Rattus norvegicus, UniProt P22771+P24524+P07727+P20781); format: cell membranes, Wistar, Spinal cord, Membrane; also: in other assays of this panel Not Active means under 50% inhibition at 10 µM
[1] = biological target: T1, 5-hydroxytryptamine receptor 1A (Rattus norvegicus, UniProt P19327); format: cell membranes, CHO-K1, Membrane; conditions: cho-k1; also: in other assays of this panel Not Active means under 50% inhibition at 10 µM
T1 sequence (P19327 whole entry): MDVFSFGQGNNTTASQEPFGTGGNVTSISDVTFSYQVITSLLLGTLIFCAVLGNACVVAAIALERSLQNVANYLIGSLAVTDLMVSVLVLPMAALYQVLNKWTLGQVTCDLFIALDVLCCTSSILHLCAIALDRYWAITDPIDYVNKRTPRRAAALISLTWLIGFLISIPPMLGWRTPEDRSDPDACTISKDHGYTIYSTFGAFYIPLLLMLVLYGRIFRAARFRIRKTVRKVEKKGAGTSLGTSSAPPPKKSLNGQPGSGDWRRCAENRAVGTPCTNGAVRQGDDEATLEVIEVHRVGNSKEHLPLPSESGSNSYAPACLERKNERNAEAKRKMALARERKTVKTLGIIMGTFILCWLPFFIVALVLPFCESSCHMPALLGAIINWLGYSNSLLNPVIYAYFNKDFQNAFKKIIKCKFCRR

Adenosine receptor A2a = Adenosine receptor A2a (Homo sapiens, UniProt P29274); experiment: DRUGMATRIX: Adenosine A2A radioligand binding (ligand: […]); format: cell membranes, HEK293, Membrane; conditions: hek293; Not Active = under 50% inhibition at 10 µM
Chain of Adenosine receptor A2a (P29274 whole entry): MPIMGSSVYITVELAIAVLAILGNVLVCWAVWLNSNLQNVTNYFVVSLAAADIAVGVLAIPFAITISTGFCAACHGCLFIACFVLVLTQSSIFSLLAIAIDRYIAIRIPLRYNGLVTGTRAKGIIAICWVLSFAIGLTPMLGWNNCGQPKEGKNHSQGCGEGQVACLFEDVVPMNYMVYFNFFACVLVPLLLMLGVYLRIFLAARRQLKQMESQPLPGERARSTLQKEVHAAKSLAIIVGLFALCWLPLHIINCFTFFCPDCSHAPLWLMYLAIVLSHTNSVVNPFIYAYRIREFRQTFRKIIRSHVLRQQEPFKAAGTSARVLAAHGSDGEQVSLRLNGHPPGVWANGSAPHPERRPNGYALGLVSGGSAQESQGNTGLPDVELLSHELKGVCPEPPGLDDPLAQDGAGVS

[2] = DRUGMATRIX: Phorbol Ester radioligand binding (ligand: [3H] PDBu); format: cell membranes, Mus musculus, ICR, Brain, Membrane; conditions: Not Active = under 50% inhibition at 10 µM
Cytochrome P450 2C9 = Cytochrome P450 2C9 (Homo sapiens, UniProt P11712); conditions: bti-tn-5b1-4; also: in other assays of this panel Not Active means under 50% inhibition at 10 µM
Chain of Cytochrome P450 2C9 (P11712 whole entry): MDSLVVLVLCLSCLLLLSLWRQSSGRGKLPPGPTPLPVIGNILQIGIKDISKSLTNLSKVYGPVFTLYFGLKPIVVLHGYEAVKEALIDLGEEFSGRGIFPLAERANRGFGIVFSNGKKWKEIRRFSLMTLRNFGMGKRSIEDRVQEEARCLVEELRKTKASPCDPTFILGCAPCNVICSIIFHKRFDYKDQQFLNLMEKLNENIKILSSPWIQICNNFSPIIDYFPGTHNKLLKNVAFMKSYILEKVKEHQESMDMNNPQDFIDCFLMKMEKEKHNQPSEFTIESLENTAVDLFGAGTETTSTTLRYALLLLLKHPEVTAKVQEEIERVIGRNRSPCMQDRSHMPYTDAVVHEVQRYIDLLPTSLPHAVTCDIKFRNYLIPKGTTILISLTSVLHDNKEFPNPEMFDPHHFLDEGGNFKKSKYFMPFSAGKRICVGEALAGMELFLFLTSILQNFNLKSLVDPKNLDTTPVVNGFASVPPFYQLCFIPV

Leukotriene C4 synthase = biological target: T2, Leukotriene C4 synthase (Cavia porcellus, UniProt A6XA80); format: tissue-based, Lung;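 also: enzyme inhibition assay of leukotriene C4 synthase, using LTA4 as the substrate; in other assays of this panel Not Active means under 50% inhibition at 10 µM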
T2 sequence (A6XA80 whole entry): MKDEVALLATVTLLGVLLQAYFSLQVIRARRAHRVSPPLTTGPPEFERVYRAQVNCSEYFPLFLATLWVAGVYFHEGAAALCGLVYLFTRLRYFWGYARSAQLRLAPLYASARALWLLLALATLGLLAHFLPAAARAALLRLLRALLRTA

B2 bradykinin receptor = biological target: T3, B2 bradykinin receptor (Homo sapiens, UniProt P30411); format: cell membranes, Membrane; conditions: chem-1; also: in other assays of this panel Not Active means under 50% inhibition at 10 µM
T3 sequence (P30411 whole entry): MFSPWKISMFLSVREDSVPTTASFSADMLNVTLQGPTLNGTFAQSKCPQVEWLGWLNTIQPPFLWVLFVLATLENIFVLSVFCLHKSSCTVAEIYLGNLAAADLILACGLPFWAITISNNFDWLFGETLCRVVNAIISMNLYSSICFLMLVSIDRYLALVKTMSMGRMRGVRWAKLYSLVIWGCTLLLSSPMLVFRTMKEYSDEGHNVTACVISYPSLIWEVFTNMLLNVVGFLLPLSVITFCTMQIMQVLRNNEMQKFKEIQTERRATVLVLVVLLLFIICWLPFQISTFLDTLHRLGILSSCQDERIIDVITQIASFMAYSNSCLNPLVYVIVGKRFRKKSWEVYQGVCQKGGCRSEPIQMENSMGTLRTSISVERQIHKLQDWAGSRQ

CC(=O)OC[C@H]1O[C@@H](n2ncc(=O)[nH]c2=O)[C@H](OC(C)=O)[C@@H]1OC(C)=O [AZARIBINE]
Not Active: IC50 (Glycine receptor) | IC50 [1] | IC50 (Adenosine receptor A2a) | IC50 [2] | Ki [2] | IC50 (Cytochrome P450 2C9) | Ki (Cytochrome P450 2C9) | IC50 (Leukotriene C4 synthase) | IC50 (B2 bradykinin receptor)

C[C@H]1[C@H](NC(=O)/C(=N\OC(C)(C)C(=O)O)c2csc(N)n2)C(=O)N1S(=O)(=O)O [AZTREONAM]
Not Active: IC50 (Glycine receptor) | IC50 [1] | IC50 (Adenosine receptor A2a) | IC50 [2] | Ki [2] | IC50 (Cytochrome P450 2C9) | Ki (Cytochrome P450 2C9) | IC50 (Leukotriene C4 synthase) | IC50 (B2 bradykinin receptor)

O=C(O)CCNC(=O)c1ccc(/N=N/c2ccc(O)c(C(=O)O)c2)cc1 [BALSALAZIDE]
Not Active: IC50 (Glycine receptor) | IC50 [1] | IC50 (Adenosine receptor A2a) | IC50 [2] | Ki [2] | IC50 (Cytochrome P450 2C9) | Ki (Cytochrome P450 2C9) | IC50 (Leukotriene C4 synthase) | IC50 (B2 bradykinin receptor)

COc1cc(OC)c(C(=O)CCCN2CCCC2)c(OC)c1 [BUFLOMEDIL]
Not Active: IC50 (Glycine receptor) | IC50 [1] | IC50 (Adenosine receptor A2a) | IC50 [2] | Ki [2] | IC50 (Cytochrome P450 2C9) | Ki (Cytochrome P450 2C9) | IC50 (Leukotriene C4 synthase) | IC50 (B2 bradykinin receptor)

ClC(Cl)(Cl)Cl [CARBON TETRACHLORIDE]
Not Active: IC50 (Glycine receptor) | IC50 [1] | IC50 (Adenosine receptor A2a) | IC50 [2] | Ki [2] | IC50 (Cytochrome P450 2C9) | Ki (Cytochrome P450 2C9) | IC50 (Leukotriene C4 synthase) | IC50 (B2 bradykinin receptor)

CO/N=C(\C(=O)N[C@@H]1C(=O)N2C(C(=O)O)=C(COC(C)=O)CS[C@H]12)c1csc(N)n1 [CEFOTAXIME]
Not Active: IC50 (Glycine receptor) | IC50 [1] | IC50 (Adenosine receptor A2a) | IC50 [2] | Ki [2] | IC50 (Cytochrome P450 2C9) | Ki (Cytochrome P450 2C9) | IC50 (Leukotriene C4 synthase) | IC50 (B2 bradykinin receptor)

CNC1=Nc2ccc(Cl)cc2C(c2ccccc2)=[N+]([O-])C1 [CHLORDIAZEPOXIDE]
Not Active: IC50 (Glycine receptor) | IC50 [1] | IC50 (Adenosine receptor A2a) | IC50 [2] | Ki [2] | IC50 (Cytochrome P450 2C9) | Ki (Cytochrome P450 2C9) | IC50 (Leukotriene C4 synthase) | IC50 (B2 bradykinin receptor)

Cc1cc(O)cc(C)c1Cl [CHLOROXYLENOL]
Not Active: IC50 (Glycine receptor) | IC50 [1] | IC50 (Adenosine receptor A2a) | IC50 [2] | Ki [2] | IC50 (Cytochrome P450 2C9) | Ki (Cytochrome P450 2C9) | IC50 (Leukotriene C4 synthase) | IC50 (B2 bradykinin receptor)

CCCNC(=O)NS(=O)(=O)c1ccc(Cl)cc1 [CHLORPROPAMIDE]
Not Active: IC50 (Glycine receptor) | IC50 [1] | IC50 (Adenosine receptor A2a) | IC50 [2] | Ki [2] | IC50 (Cytochrome P450 2C9) | Ki (Cytochrome P450 2C9) | IC50 (Leukotriene C4 synthase) | IC50 (B2 bradykinin receptor)

NS(=O)(=O)c1cc(C2(O)NC(=O)c3ccccc32)ccc1Cl (stereo unspecified) [CHLORTHALIDONE]
Not Active: IC50 (Glycine receptor) | IC50 [1] | IC50 (Adenosine receptor A2a) | IC50 [2] | Ki [2] | IC50 (Cytochrome P450 2C9) | Ki (Cytochrome P450 2C9) | IC50 (Leukotriene C4 synthase) | IC50 (B2 bradykinin receptor)

O=C(O)CC(O)(CC(=O)O)C(=O)O [CITRIC ACID]
Not Active: IC50 (Glycine receptor) | IC50 [1] | IC50 (Adenosine receptor A2a) | IC50 [2] | Ki [2] | IC50 (Cytochrome P450 2C9) | Ki (Cytochrome P450 2C9) | IC50 (Leukotriene C4 synthase) | IC50 (B2 bradykinin receptor)

CC(C)NCC(O)c1ccccc1Cl (stereo unspecified) [CLORPRENALINE]
Not Active: IC50 (Glycine receptor) | IC50 [1] | IC50 (Adenosine receptor A2a) | IC50 [2] | Ki [2] | IC50 (Cytochrome P450 2C9) | Ki (Cytochrome P450 2C9) | IC50 (Leukotriene C4 synthase) | IC50 (B2 bradykinin receptor)

CN1CCN(C(c2ccccc2)c2ccccc2)CC1 [CYCLIZINE]
Not Active: IC50 (Glycine receptor) | IC50 [1] | IC50 (Adenosine receptor A2a) | IC50 [2] | Ki [2] | IC50 (Cytochrome P450 2C9) | Ki (Cytochrome P450 2C9) | IC50 (Leukotriene C4 synthase) | IC50 (B2 bradykinin receptor)

CN1C[C@@H]2C[C@H]1CN2c1cc2c(cc1F)c(=O)c(C(=O)O)cn2C1CC1 [DANOFLOXACIN]
Not Active: IC50 (Glycine receptor) | IC50 [1] | IC50 (Adenosine receptor A2a) | IC50 [2] | Ki [2] | IC50 (Cytochrome P450 2C9) | Ki (Cytochrome P450 2C9) | IC50 (Leukotriene C4 synthase) | IC50 (B2 bradykinin receptor)

COc1cccc2c1C(=O)c1c(O)c3c(c(O)c1C2=O)C[C@@](O)(C(C)=O)C[C@@H]3O[C@H]1C[C@H](N)[C@H](O)[C@H](C)O1 [DAUNORUBICIN]
Not Active: IC50 (Glycine receptor) | IC50 [1] | IC50 (Adenosine receptor A2a) | IC50 [2] | Ki [2] | IC50 (Cytochrome P450 2C9) | Ki (Cytochrome P450 2C9) | IC50 (Leukotriene C4 synthase) | IC50 (B2 bradykinin receptor)

O=C(O)c1cc(-c2ccc(F)cc2F)ccc1O [DIFLUNISAL]
Not Active: IC50 (Glycine receptor) | IC50 [1] | IC50 (Adenosine receptor A2a) | IC50 [2] | Ki [2] | IC50 (Cytochrome P450 2C9) | Ki (Cytochrome P450 2C9) | IC50 (Leukotriene C4 synthase) | IC50 (B2 bradykinin receptor)

C[S+](C)[O-] [DIMETHYL SULFOXIDE]
Not Active: IC50 (Glycine receptor) | IC50 [1] | IC50 (Adenosine receptor A2a) | IC50 [2] | Ki [2] | IC50 (Cytochrome P450 2C9) | Ki (Cytochrome P450 2C9) | IC50 (Leukotriene C4 synthase) | IC50 (B2 bradykinin receptor)

CC1=NN(c2ccccc2)C(=O)C1 [EDARAVONE]
Not Active: IC50 (Glycine receptor) | IC50 [1] | IC50 (Adenosine receptor A2a) | IC50 [2] | Ki [2] | IC50 (Cytochrome P450 2C9) | Ki (Cytochrome P450 2C9) | IC50 (Leukotriene C4 synthase) | IC50 (B2 bradykinin receptor)

C[C@]12CC[C@@H]3c4ccc(O)cc4CC[C@H]3[C@@H]1C[C@@H](O)[C@@H]2O [ESTRIOL]
Not Active: IC50 (Glycine receptor) | IC50 [1] | IC50 (Adenosine receptor A2a) | IC50 [2] | Ki [2] | IC50 (Cytochrome P450 2C9) | Ki (Cytochrome P450 2C9) | IC50 (Leukotriene C4 synthase) | IC50 (B2 bradykinin receptor)

C#C[C@]1(O)CC[C@H]2[C@@H]3CCC4=CC(=O)CC[C@]4(C)[C@H]3CC[C@@]21C [ETHISTERONE]
Not Active: IC50 (Glycine receptor) | IC50 [1] | IC50 (Adenosine receptor A2a) | IC50 [2] | Ki [2] | IC50 (Cytochrome P450 2C9) | Ki (Cytochrome P450 2C9) | IC50 (Leukotriene C4 synthase) | IC50 (B2 bradykinin receptor)

CC(O)(P(=O)(O)O)P(=O)(O)O [ETIDRONIC ACID]
Not Active: IC50 (Glycine receptor) | IC50 [1] | IC50 (Adenosine receptor A2a) | IC50 [2] | Ki [2] | IC50 (Cytochrome P450 2C9) | Ki (Cytochrome P450 2C9) | IC50 (Leukotriene C4 synthase) | IC50 (B2 bradykinin receptor)

CN1CCN(c2c(F)cc3c(=O)c(C(=O)O)cn(CCF)c3c2F)CC1 [FLEROXACIN]
Not Active: IC50 (Glycine receptor) | IC50 [1] | IC50 (Adenosine receptor A2a) | IC50 [2] | Ki [2] | IC50 (Cytochrome P450 2C9) | Ki (Cytochrome P450 2C9) | IC50 (Leukotriene C4 synthase) | IC50 (B2 bradykinin receptor)

O=c1[nH]c(=O)n([C@H]2C[C@H](O)[C@@H](CO)O2)cc1F [FLOXURIDINE]
Not Active: IC50 (Glycine receptor) | IC50 [1] | IC50 (Adenosine receptor A2a) | IC50 [2] | Ki [2] | IC50 (Cytochrome P450 2C9) | Ki (Cytochrome P450 2C9) | IC50 (Leukotriene C4 synthase) | IC50 (B2 bradykinin receptor)

COC(=O)Nc1nc2cc(C(=O)c3ccc(F)cc3)ccc2[nH]1 [FLUBENDAZOLE]
Not Active: IC50 (Glycine receptor) | IC50 [1] | IC50 (Adenosine receptor A2a) | IC50 [2] | Ki [2] | IC50 (Cytochrome P450 2C9) | Ki (Cytochrome P450 2C9) | IC50 (Leukotriene C4 synthase) | IC50 (B2 bradykinin receptor)
